This experiment relates to Acinetobacter baumannii ATCC 17961. Kind of experiment: Antimicrobial susceptibility testing: 90% growth inhibitory concentration (IC90) determination. The experiment is classed as cell-based. Put shortly:
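Growth was followed kinetically by OD600 at 20-min intervals for 16 h at 35±2 °C, with ~5×10^5 CFU/ml in Iso-Sensitest broth. Compounds were tested as twofold dilutions (e.g. 50–0.097 μM final). The concentration giving 90% inhibition of log-phase growth was reported.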

The mark [1] stands for this setting: ATCC17961, Acinetobacter baumannii ATCC 17961, Iso-Sensitest broth, read-out: ATCC 17961 IC90.
[2] abbreviates: Acinetobacter baumannii, ATCC17961, read-out: ATCC 17961 IC90, Acinetobacter baumannii ATCC 17961, Iso-Sensitest broth.

Where a name gives a salt, the structure may show the parent alone. Read-outs that look alike come from different tables or passages of the source.

With `CCc1cc(NC(=O)c2ncc(-c3cn(CC(F)F)nc3C(F)(F)F)n2C)ccc1C(=O)N1CCN(C(=O)NCC2(O)CNC2)CC1` [Example 157, 4-[4-[[5-[1-(2,2-difluoroethyl)-3-(trifluoromethyl)pyrazol-4-yl]-1-methylimidazole-2-carbonyl]amino]-2-ethylbenzoyl]-N-[(3-hydroxyazetidin-3-yl)methyl]piperazine-1-carboxamide;formic acid], the concentration for an effect of 90% (IC90) – broadly, the point of the concentration-response curve where the effect stands at 90% – under setting [1] worked out at 1 µM.
For `CCc1cc(NC(=O)c2ncc(-c3cn(Cc4cccnc4)nc3C(F)(F)F)n2C)ccc1C(=O)N1CCN(C(=O)C2CCN(C)CC2)CC1` [Example 158, N-[3-ethyl-4-[4-(1-methylpiperidine-4-carbonyl)piperazine-1-carbonyl]phenyl]-1-methyl-5-[1-(pyridin-3-ylmethyl)-3-(trifluoromethyl)pyrazol-4-yl]imidazole-2-carboxamide;formic acid], the concentration for an effect of 90% (IC90) under setting [1] came out at 1.2 µM.
Same read-out and setting: the value for `CCc1cc(NC(=O)c2ncc(-c3cn(Cc4cccnc4)nc3C(F)(F)F)n2C)ccc1C(=O)N1CCN(C(=O)C2CCNCC2)CC1` [Example 159, N-[3-ethyl-4-[4-(piperidine-4-carbonyl)piperazine-1-carbonyl]phenyl]-1-methyl-5-[1-(pyridin-3-ylmethyl)-3-(trifluoromethyl)pyrazol-4-yl]imidazole-2-carboxamide;formic acid] was 1.16 µM.
Same read-out and setting: the value for `CCc1cc(NC(=O)c2ncc(-c3cn(Cc4cccnc4)nc3C(F)(F)F)n2C)ccc1C(=O)N1CCN(C(=O)C2(O)CCNCC2)CC1` [Example 160, N-[3-ethyl-4-[4-(4-hydroxypiperidine-4-carbonyl)piperazine-1-carbonyl]phenyl]-1-methyl-5-[1-(pyridin-3-ylmethyl)-3-(trifluoromethyl)pyrazol-4-yl]imidazole-2-carboxamide;formic acid] was 1.5 µM; that for `CCc1cc(NC(=O)c2ncc(-c3cn(Cc4cccnc4)nc3C(F)(F)F)n2C)ccc1C(=O)N1CCN(C(=O)[C@@H]2CCNC2)CC1` [Example 161, N-[3-ethyl-4-[4-[(3R)-pyrrolidine-3-carbonyl]piperazine-1-carbonyl]phenyl]-1-methyl-5-[1-(pyridin-3-ylmethyl)-3-(trifluoromethyl)pyrazol-4-yl]imidazole-2-carboxamide;formic acid] was 1.28 µM.
Same read-out and setting: the value for `CCc1cc(NC(=O)c2ncc(-c3cn(Cc4cccnc4)nc3C(F)(F)F)n2C)ccc1C(=O)N1CCN(C(=O)NCC2(O)CNC2)CC1` [Example 162, 4-[2-ethyl-4-[[1-methyl-5-[1-(pyridin-3-ylmethyl)-3-(trifluoromethyl)pyrazol-4-yl]imidazole-2-carbonyl]amino]benzoyl]-N-[(3-hydroxyazetidin-3-yl)methyl]piperazine-1-carboxamide;formic acid] was 1.47 µM; that for `CCn1cc(-c2cnc(C(=O)Nc3ccc(C(=O)N4CCN(C(=O)N[C@H]5C[C@@H](N)C5)CC4)c(Cl)c3)n2C)c(C(F)(F)F)n1` [Example 168, rac-N-((1s,3s)-3-aminocyclobutyl)-4-(2-chloro-4-(5-(1-ethyl-3-(trifluoromethyl)-1H-pyrazol-4-yl)-1-methyl-1H-imidazole-2-carboxamido)benzoyl)piperazine-1-carboxamide Hydrochloride] was 0.347 µM.
Turning to `Cn1c(-c2cn(CC3CC3)nc2C(F)(F)F)cnc1C(=O)Nc1ccc(C(=O)N2CCN(C(=O)N[C@H]3C[C@@H](N)C3)CC2)c(Cl)c1` [Example 169, rac-N-((1s,3s)-3-aminocyclobutyl)-4-(2-chloro-4-(5-(1-(cyclopropylmethyl)-3-(trifluoromethyl)-1H-pyrazol-4-yl)-1-methyl-1H-imidazole-2-carboxamido)benzoyl)piperazine-1-carboxamide Hydrochloride], under setting [2], the 90% effect concentration (IC90) came to 0.245 µM.
On to `CCc1cc(NC(=O)c2ncc(-c3cn(CC#N)nc3C(F)(F)F)n2C)ccc1C(=O)NCCOCC(C)(C)N` [Example 170, N-(4-((2-(2-amino-2-methylpropoxy)ethyl)carbamoyl)-3-ethylphenyl)-5-(1-(cyanomethyl)-3-(trifluoromethyl)-1H-pyrazol-4-yl)-1-methyl-1H-imidazole-2-carboxamide], for which the concentration for an effect of 90% (IC90) under setting [1] was found to be 0.234 µM.
On the same count and under the same terms, the value for `C=Cn1cc(-c2cnc(C(=O)Nc3ccc(C(=O)N4CCN(C(=O)NC5CNC5)CC4)c(Cl)c3)n2C)c(C(F)(F)F)n1` [Example 171, N-(azetidin-3-yl)-4-(2-chloro-4-(1-methyl-5-(3-(trifluoromethyl)-1-vinyl-1H-pyrazol-4-yl)-1H-imidazole-2-carboxamido)benzoyl)piperazine-1-carboxamide] was 0.207 µM.
Still for that read-out and setting: the value for `Cn1c(-c2cn(C3CC3(F)F)nc2C(F)(F)F)cnc1C(=O)Nc1ccc(C(=O)N[C@H]2[C@@H]3CN(C(=O)C4CCNCC4)C[C@@H]32)c(Cl)c1` (stereo partly drawn) [Example 172, N-(3-chloro-4-(((1R,5S,6s)-3-(piperidine-4-carbonyl)-3-azabicyclo[3.1.0]hexan-6-yl)carbamoyl)phenyl)-5-(1-(2,2-difluorocyclopropyl)-3-(trifluoromethyl)-1H-pyrazol-4-yl)-1-methyl-1H-imidazole-2-carboxamide formate] was 0.146 µM.
The same measure, in the same setting: to `Cn1c(-c2cn(C3CCC3)nc2C(F)(F)F)cnc1C(=O)Nc1ccc(C(=O)N[C@H]2[C@@H]3CN(C(=O)C4CCNCC4)C[C@@H]32)c(Cl)c1` [Example 173, N-(3-chloro-4-(((1R,5S,6s)-3-(piperidine-4-carbonyl)-3-azabicyclo[3.1.0]hexan-6-yl)carbamoyl)phenyl)-5-(1-cyclobutyl-3-(trifluoromethyl)-1H-pyrazol-4-yl)-1-methyl-1H-imidazole-2-carboxamide formate] belongs 0.234 µM; to `Cn1c(-c2cn(CC3CCC3)nc2C(F)(F)F)cnc1C(=O)Nc1ccc(C(=O)N[C@H]2[C@@H]3CN(C(=O)C4CCNCC4)C[C@@H]32)c(Cl)c1` [Example 174, N-(3-chloro-4-(((1R,5S,6s)-3-(piperidine-4-carbonyl)-3-azabicyclo[3.1.0]hexan-6-yl)carbamoyl)phenyl)-5-(1-(cyclobutylmethyl)-3-(trifluoromethyl)-1H-pyrazol-4-yl)-1-methyl-1H-imidazole-2-carboxamide formate], 0.25 µM.
For `Cn1c(-c2cn(CC#N)nc2C(F)(F)F)cnc1C(=O)Nc1ccc(C(=O)N[C@H]2[C@@H]3CN(C(=O)N[C@@H]4CNC[C@H]4O)C[C@@H]32)c(Cl)c1` [Example 175, (1R,5S,6s)-6-(2-chloro-4-(5-(1-(cyanomethyl)-3-(trifluoromethyl)-1H-pyrazol-4-yl)-1-methyl-1H-imidazole-2-carboxamido)benzamido)-N-(trans-4-hydroxypyrrolidin-3-yl)-3-azabicyclo[3.1.0]hexane-3-carboxamide Formate], the concentration for an effect of 90% (IC90) under setting [1] was 0.33 µM.
With `C=C(F)Cn1cc(-c2cnc(C(=O)Nc3ccc(C(=O)N[C@H]4[C@@H]5CN(C(=O)N[C@@H]6CNC[C@H]6O)C[C@@H]54)c(Cl)c3)n2C)c(C(F)(F)F)n1` [Example 176, (1R,5S,6s)-6-(2-chloro-4-(5-(1-(2-fluoroallyl)-3-(trifluoromethyl)-1H-pyrazol-4-yl)-1-methyl-1H-imidazole-2-carboxamido)benzamido)-N-(trans-4-hydroxypyrrolidin-3-yl)-3-azabicyclo[3.1.0]hexane-3-carboxamide Formate], under setting [1], the IC90 stood at 0.155 µM.
Turning to `Cn1c(-c2cn(CC(F)F)nc2C(F)(F)F)cnc1C(=O)Nc1ccc(C(=O)N[C@H]2[C@@H]3CN(C(=O)N[C@H]4C[C@@H](N)C4)C[C@@H]32)c(Cl)c1` [Example 177, (1R,5S,6s)-N-(cis-3-aminocyclobutyl)-6-(2-chloro-4-(5-(1-(2,2-difluoroethyl)-3-(trifluoromethyl)-1H-pyrazol-4-yl)-1-methyl-1H-imidazole-2-carboxamido)benzamido)-3-azabicyclo[3.1.0]hexane-3-carboxamide], the 90% effect concentration (IC90) under setting [1] amounted to 0.229 µM.
The same measure, in the same setting: to `Cn1c(-c2cn(C3CC3(F)F)nc2C(F)(F)F)cnc1C(=O)Nc1ccc(C(=O)NCC2(N)CC2)c(Cl)c1` (centres unmarked) [Example 178, N-(4-(((1-aminocyclopropyl)methyl)carbamoyl)-3-chlorophenyl)-5-(1-(2,2-difluorocyclopropyl)-3-(trifluoromethyl)-1H-pyrazol-4-yl)-1-methyl-H-imidazole-2-carboxamide Formate] belongs 0.086 µM.
With `Cn1c(-c2cn(CCF)nc2C(F)(F)F)cnc1C(=O)Nc1ccc(C(=O)N2CCN(C(=O)C3(O)CCCNC3)CC2)c(Cl)c1` (centres unmarked) [Example 180, N-[3-chloro-4-[4-(3-hydroxypiperidine-3-carbonyl)piperazine-1-carbonyl]phenyl]-5-[1-(2-fluoroethyl)-3-(trifluoromethyl)pyrazol-4-yl]-1-methylimidazole-2-carboxamide; Trihydrochloride], the concentration for an effect of 90% (IC90) under setting [2] is 0.397 µM.
As for `Cn1c(-c2cn([C@@H]3CC3(F)F)nc2C(F)(F)F)cnc1C(=O)Nc1ccc(C(=O)N[C@H]2[C@@H]3CN(C(=O)N[C@@H]4CNC[C@H]4O)C[C@@H]32)c(Cl)c1` [Example 181, (1S,5R)-6-[[2-chloro-4-[[5-[1-[(1R)-2,2-difluorocyclopropyl]-3-(trifluoromethyl)pyrazol-4-yl]-1-methyl-imidazole-2-carbonyl]amino]benzoyl]amino]-N-[(3R,4R)-4-hydroxypyrrolidin-3-yl]-3-azabicyclo[3.1.0]hexane-3-carboxamide; Hydrochloride], the 90% effect concentration (IC90) under setting [1] was 0.064 µM.
Still for that read-out and setting: the value for `Cn1c(-c2cn([C@H]3CC3(F)F)nc2C(F)(F)F)cnc1C(=O)Nc1ccc(C(=O)N[C@H]2[C@@H]3CN(C(=O)N[C@@H]4CNC[C@H]4O)C[C@@H]32)c(Cl)c1` [Example 182, (1S,5R)-6-[[2-chloro-4-[[5-[1-[(1S)-2,2-difluorocyclopropyl]-3-(trifluoromethyl)pyrazol-4-yl]-1-methyl-imidazole-2-carbonyl]amino]benzoyl]amino]-N-[(3R,4R)-4-hydroxypyrrolidin-3-yl]-3-azabicyclo[3.1.0]hexane-3-carboxamide] was 0.11 µM.
